Results from patent US20170226145A1, “METHODS OF EXTRACTION AND PURIFICATION FROM STEVIA REBAUDIANA OF COMPOSITIONS WITH ENHANCED REBAUDIOSIDE-M CONTENT, USES OF SAID COMPOSITION AND NATURAL SWEETENER COMPOSITIONS WITH SAID COMPOSITION” (GLG LIFE TECH CORPORATION, priority 2014, published 2017).

Legend:
[1] = Example 8 sample test results of sweetener solutions (Table 2)
Excerpt: Reb M 95, Reb C 85, Reb D 95, Reb A 97, Sucrose, New Blends RA97 and RM95, New Blends RA97, RM95 and RC85, New Blends RM95, RA97 and Sucrose, New Blends RM95, RA97 and Erythritol, Purified Water. [table]

[2] = Sweetness relative to sucrose (general statements, Table 1)
Excerpt: The physical and sensory properties are well studied generally only for Stevioside (STV) and Rebaudioside A. The sweetness potency of Stevioside is around 210 times higher than sucrose, Rebaudioside A is between 200 and 400 times, and Rebaudioside C is between 40 and 50 times and Dulcoside A around 30 times. Traditionally, Rebaudioside A is considered to have the most favorable sensory attributes of the four major steviol glycosides (see Table 1): […]

[3] = Solubility in water and solvents; assay type: physicochemical
Heat and pH stability = assay type: physicochemical; settings: RM obtained in accordance with the invention
[4] = glycosides of wild type stevia; cited from earlier work

OC[C@H]1O[C@@](CO)(O[C@H]2O[C@H](CO)[C@@H](O)[C@H](O)[C@H]2O)[C@@H](O)[C@@H]1O [Sucrose]
Content/100 ml ([1]; amount per 100 ml in the solution that has sweetness 9° (9 g sucrose)): 9 g | Sweetness of Solution ([1]; solution at the Content/100 ml of Table 2): 9°

C=C1C[C@@]23CC[C@H]4[C@@](C)(CCC[C@@]4(C)C(=O)O[C@@H]4O[C@H](CO)[C@@H](O)[C@H](O[C@@H]5O[C@H](CO)[C@@H](O)[C@H](O)[C@H]5O)[C@H]4O[C@@H]4O[C@H](CO)[C@@H](O)[C@H](O)[C@H]4O)[C@@H]2CC[C@]1(O[C@@H]1O[C@H](CO)[C@@H](O)[C@H](O[C@@H]2O[C@H](CO)[C@@H](O)[C@H](O)[C@H]2O)[C@H]1O[C@@H]1O[C@H](CO)[C@@H](O)[C@H](O)[C@H]1O)C3 [RM, Rebaudioside M]
times sweeter than sugar ([2]; compared to a 10% sucrose solution): about 200 times | times sweetness of sucrose ([2]; purified Reb M of the invention): more than 300 times | solubility in acetone, benzene, chloroform, and ether [3]: insoluble | solubility in diluted solutions of methanol, ethanol, n-propanol, and isopropanol [3]: soluble | solubility of RM in water ([3]; increases with an increase in temperature): around 0.3% | heat and pH stability (Heat and pH stability): heat and pH-stable

C=C1C[C@@]23CC[C@H]4[C@@](C)(CCC[C@@]4(C)C(=O)O[C@@H]4O[C@H](CO)[C@@H](O)[C@H](O)[C@H]4O)[C@@H]2CC[C@]1(O[C@@H]1O[C@H](CO)[C@@H](O)[C@H](O)[C@H]1O[C@@H]1O[C@H](CO)[C@@H](O)[C@H](O)[C@H]1O)C3 [Stevioside]
sweetness, × of sugar [4]: 250-300 × of sugar

C=C1C[C@@]23CC[C@H]4[C@@](C)(CCC[C@@]4(C)C(=O)O[C@@H]4O[C@H](CO)[C@@H](O)[C@H](O)[C@H]4O)[C@@H]2CC[C@]1(O[C@@H]1O[C@H](CO)[C@@H](O)[C@H](O[C@@H]2O[C@H](CO)[C@@H](O)[C@H](O)[C@H]2O)[C@H]1O[C@@H]1O[C@H](CO)[C@@H](O)[C@H](O)[C@H]1O)C3 [Rebaudioside A]
sweetness, × of sugar [4]: 350-450 × of sugar

Rebaudioside C
sweetness, × of sugar [4]: 40-50 × of sugar
